In patent US9957270B2, “Fused pyrimidine-based hydroxamate derivatives” (Agency for Science, Technology and Research, priority 2014, dated 2018):
Where a name gives a salt, the structure may show the parent alone. Read-outs that look alike come from different tables or passages of the source.

Key:
MV-4-11 [1] = details: read-out: In Vitro Cellular IC50 MV-4-11; Table 4; 72 h
[2] = biological target: HDAC (HeLa nuclear extracts); assay: HDAC enzyme assay, HeLa nuclear extracts; details: read-out: In Vitro Enzymatic IC50 HDAC (HeLa)
PC-3 = assay: Anti-proliferative assay (cellular IC50), PC-3; details: read-out: In Vitro Cellular IC50 PC-3; Table 4; 72 h
HepG2 xenograft [3] = tested on: HepG2 xenograft
From the text: In FIG. 26, Efficacy in CB17 scid mice HepG2 xenograft model is shown. […] Vehicle group has BW loss due to increasing tumor burden.

HepG2 xenograft [4] = tested on: HepG2 xenograft; remark: listed apart in the source
4T1 = assay: cells; details: Mus musculus, 4T1, read-out: In Vitro Cellular IC50 4T1
HCT 116 = assay: cells; details: Homo sapiens
PLC/PRF/5 = assay: cells; details: Homo sapiens, PLC-PRF-5, read-out: In Vitro Cellular IC50 PLC/PRF/5
MV-4-11 [5] = assay: cells; details: Homo sapiens
MCF7 = assay: Anti-proliferative assay (cellular IC50), MCF7; details: Homo sapiens
A549 = assay: Anti-proliferative assay (cellular IC50), A549; details: Homo sapiens, A549, read-out: In Vitro Cellular IC50 A549
Raji = assay: Anti-proliferative assay (cellular IC50), Raji; details: Homo sapiens, read-out: In Vitro Cellular IC50 Raji
HuH-7 = assay: Anti-proliferative assay (cellular IC50), HuH-7; details: Homo sapiens, Huh-7, read-out: In Vitro Cellular IC50 HuH-7
HepG2 = assay: Anti-proliferative assay (cellular IC50), HepG2; details: Homo sapiens
Daudi = assay: Anti-proliferative assay (cellular IC50), Daudi; details: Homo sapiens, read-out: In Vitro Cellular IC50 Daudi
A-431 = assay: Anti-proliferative assay (cellular IC50), A-431; details: Homo sapiens, A-431, read-out: In Vitro Cellular IC50 A-431
U138MG = assay: Anti-proliferative assay (cellular IC50), U138MG; details: Homo sapiens, U138-MG, read-out: In Vitro Cellular IC50 U138MG
U87 MG = assay: Anti-proliferative assay (cellular IC50), U87 MG; details: Homo sapiens, U-87 MG, read-out: In Vitro Cellular IC50 U87 MG
HCCLM3 = assay: Anti-proliferative assay (cellular IC50), HCCLM3; details: Homo sapiens, HCCLM3, read-out: In Vitro Cellular IC50 HCCLM3
MOLT-4 = assay: Anti-proliferative assay (cellular IC50), MOLT-4; details: Homo sapiens
SK-HEP1 = assay: Anti-proliferative assay (cellular IC50), SK-HEP1; details: Homo sapiens, SK-HEP1, read-out: In Vitro Cellular IC50 SK-HEP1
HEL9217 = assay: Anti-proliferative assay (cellular IC50), HEL9217; details: Homo sapiens, HEL 92.1.7, read-out: In Vitro Cellular IC50 HEL9217
NCI-H460 = assay: Anti-proliferative assay (cellular IC50), NCI-H460; details: Homo sapiens, NCI-H460, read-out: In Vitro Cellular IC50 NCI-H460
NCI-H522 = assay: Anti-proliferative assay (cellular IC50), NCI-H522; details: Homo sapiens, NCI-H522, read-out: In Vitro Cellular IC50 NCI-H522
Pfeiffer = assay: Anti-proliferative assay (cellular IC50), Pfeiffer; details: Homo sapiens, read-out: In Vitro Cellular IC50 Pfeiffer
[6] = Microsomal stability, human liver microsomes; details: human, microsomes, 0.75 h, 5 μM, pH 7.4
Procedure: (§1) GIBIO pooled human liver microsomes (HLM) (Cat # HMMCPL), mouse liver microsomes (MLM) (Cat # BCMCPL), and rat liver microsomes (RLM) (Cat # RTMCPL) were purchased from Life Technologies. […] Samples are incubated for 30, 45, or 60 min. Reaction is terminated with ice-cold acetonitrile 0.3% formic acid. Samples are subsequently centrifuged at 4° C. for 15 min at 20,000×g. The supernatant is analysed by LC-MS.
(§2) Compound in vitro metabolic stability was assayed using liver microsomes (LM) at 0.5 mg/mL of proteins, incubated for 30 min (mouse, MLM), 45 min (rat, RLM), 30 or 45 min (human, HLM). % of remaining parent compound was measured using LC-MS.

[7] = Microsomal stability, mouse liver microsomes; details: mouse, microsomes, 0.5 h, 5 μM, pH 7.4
Procedure: as §1, §2

[8] = Microsomal stability, rat liver microsomes; details: rat, microsomes, 0.75 h, 5 μM, pH 7.4
Procedure: as §1, §2

[9] = tested on: histone 3 (Lys 9) and α-tubulin acetylation (HDACs) in PC-3 cells; assay: Western blot, acetylation of histone 3 (Lys 9) and α-tubulin in PC-3 cells; type: cell-based, human; details: 24 h, 1 or 10 μM
Procedure: Proteins in cell lysates are resolved by SDS-PAGE and transferred to PVDF and probed with appropriate primary and secondary antibodies. […] Representative Western blot images are shown in FIG. 15 and analyzed results are presented by FIGS. 17 to 20.
PC-3 cells were treated with test compounds at the following concentrations (all contain 0.1% DMSO) for 24 h at 37° C., and then processed according to section of Western Blot Analysis.
The graph represents results from two Western Blot analyses. […] Vehicle DMSO (0.1%) was used as blank control, and its acH3 level was normalized to 1. Y Axis is expressed as Mean±SD if applicable.
Vehicle DMSO (0.1%) as blank control, and its acetylation level was normalized to 1. Y Axis is expressed as Mean±SD if applicable.

MV-4-11 cells [10] = assay: Caspase activity assay, MV-4-11 cells; type: cell-based, human; details: Homo sapiens, MV4-11, 24 h, read-out: EC50 induction of caspase activity
Procedure: Cells are cultivated and treated with test compounds in 96-well plates as described in the above Cell Culture and Anti-Proliferative Assays section. […] The incubation time can be extended up to overnight (18 h) if the Caspase activity is low. Staurosporine is used as positive control.
Y Axis is expressed as Mean±SD if applicable.

MV-4-11 cells [11] = assay: Cell viability/cytotoxicity assay (CytoTox-Glo), MV-4-11 cells; type: cell-based, human; details: Homo sapiens, MV4-11, 48 h, read-out: cell death potency EC50
Procedure: Cells are cultivated and treated with test compounds in 96-well plates as described in the above Cell Culture and Anti-Proliferative Assays section, the content of dead cells and viable cells are measured using CytoTox-Glo™ Cytotoxicity Assay kit (Promega) per manufacture's protocol. Briefly, CytoTox-Glo™ Cytotoxicity Assay Reagent (48 μL/well) is added to the cells in 96-well plate and the luminescent signals are recorded using a BioTek Synergy H4 reader, then Lysis Reagent (48 μL/well) is added and the luminescent signals derived from both dead and viable cells are recorded. Viability can be calculated by subtracting the luminescent signal resulting from experimental cell death from total luminescent values. Staurosporine is used as positive control.
Fold of cell death of treated vs untreated was monitored at different time points. […] Y Axis is expressed as Mean±SD if applicable.

MV4-11 tumors = details: EX2 IV 50, IP 100, PO 150 mg/kg; EX78 IV 25, PO 100 mg/kg; Western blot of tumors
HuH-7 xenograft = details: HuH-7, NCr nude mice, 150 mg/kg oral
NCI-H460 xenograft = details: CB17 scid mice, 150 mg/kg oral

For “(N-hydroxy-7-(2-(3-(1- (hydroxyimino)ethyl)-4- methoxyphenyl)-6-morpholino-9H- purin-9-yl)heptanamide [compound 73]”, the IC50 (MV-4-11 [1]) was 500 to 2000 nM, the IC50 [2] was < 10 nM and the IC50 (PC-3) was 2000 to 10000 nM.
For `CNC(=O)c1cc(Oc2ccc(NC(=O)Nc3ccc(Cl)c(C(F)(F)F)c3)cc2)ccn1` [sorafenib tosylate], the “Tumor growth inhibition (TGI)” value (HepG2 xenograft [3]; HepG2, CB17 scid mice, 100 mg/kg QD×5×2 then 80 mg/kg QD×5×2 oral, day 26) was 98%, the Tolerability (HepG2 xenograft [3]; mouse, in vivo, po, 100 mg/kg) was “not well tolerated” and the “Tumor growth inhibition (TGI)” value (HepG2 xenograft [4]; HepG2, NCr nude mice, 98 mg/kg oral QD×5 per week, day 18) was 71%.
With `O=C(CCCOc1cccc(-c2nc(N3CCOCC3)nc3c2ncn3C2CCCC2)c1)NO` [compound 100, 4-(3-(9-cyclopentyl-2-morpholino-9H-purin-6-yl)phenoxy)-N-hydroxybutanamide] the IC50 (4T1) was 500 to 2000 nM, the IC50 (HCT 116; HCT-116, 72 h, read-out: In Vitro Cellular IC50 HCT 116) was < 500 nM and the IC50 (HCT 116; HCT-116, read-out: In Vitro Cellular IC50 HCT 116) was < 500 nM. For the same molecule, the IC50 (PLC/PRF/5) was 500 to 2000 nM, the IC50 (MV-4-11 [5]; MV4-11, 72 h, read-out: In Vitro Cellular IC50 MV-4-11) was < 500 nM and the IC50 (MV-4-11 [5]; MV4-11, read-out: In Vitro Cellular IC50 MV-4-11) was < 500 nM. For the same molecule, the IC50 [2] was 10 to 100 nM, the IC50 (MCF7; MCF7, 72 h, read-out: In Vitro Cellular IC50 MCF7) was < 500 nM and the IC50 (MCF7; MCF7, read-out: In Vitro Cellular IC50 MCF7) was < 500 nM. For the same molecule, the IC50 (A549) was < 500 nM, the IC50 (Raji) was < 500 nM and the IC50 (HuH-7) was < 500 nM. The IC50 (HepG2; HepG2, 72 h, read-out: In Vitro Cellular IC50 HepG2) was 500 to 2000 nM, the IC50 (HepG2; HepG2, read-out: In Vitro Cellular IC50 HepG2) was 500 to 2000 nM and the IC50 (Daudi) was < 500 nM. For the same molecule, the IC50 (A-431) was 500 to 2000 nM, the IC50 (U138MG) was 500 to 2000 nM and the IC50 (U87 MG) was 500 to 2000 nM. The IC50 (HCCLM3) was 2000 to 10000 nM, the IC50 (MOLT-4; MOLT-4, 72 h, read-out: In Vitro Cellular IC50 MOLT-4) was < 500 nM and the IC50 (MOLT-4; MOLT-4, read-out: In Vitro Cellular IC50 MOLT-4) was < 500 nM. For the same molecule, the IC50 (SK-HEP1) was 500 to 2000 nM, the IC50 (HEL9217) was < 500 nM and the IC50 (NCI-H460) was < 500 nM. The IC50 (NCI-H522) was 500 to 2000 nM and the IC50 (Pfeiffer) was < 500 nM.
For `O=C(CCCCCCn1cnc2c(N3CCOCC3)nc(-c3cccc(CO)c3)nc21)NO` [compound 2, N-hydroxy-7-(2-(3-(hydroxymethyl)phenyl)-6-morpholino-9H-purin-9-yl)heptanamide], the “Microsomal Stability HLM, % of remaining parent compound” value [6] was 99%, the “Microsomal Stability MLM, % of remaining parent compound” value [7] was 99% and the “Microsomal Stability RLM, % of remaining parent compound” value [8] was 57%. The “Hyperacetylation of histone 3 (Lys 9) and α-tubulin” value [9] was “the hyperacetylation effect is dose-dependent”, the EC50 (MV-4-11 cells [10]) was 500 nM and the EC50 (MV-4-11 cells [11]) was 69 nM. For the same molecule, the “Hyperacetylation of H3 in MV4-11 tumors” value (MV4-11 tumors) was “hyperacetylation of H3 in MV4-11 tumors”, the Tolerability (HepG2 xenograft [4]; NCr nude mice, 150 mg/kg oral) was “well tolerated” and the Tolerability (HuH-7 xenograft) was “well-tolerated”. The “maximum body weight loss vs vehicle group” value (HuH-7 xenograft) was “less than 5%” and the Tolerability (NCI-H460 xenograft) was “well tolerated”.
